Values of other authors as cited in US5314690A, “Method and composition for treating IgE-mediated allergies” (Northwestern University, priority 1992, dated 1994).
Like-named read-outs stand apart in the source and are kept apart here. Where no end group is shown, it is not given here.

Assays:
immune response [1] = settings: reported by Siemion et al.; for Effect on the immune response at low doses: low doses (one dose)
immune response [2] = settings: reported by Siemion et al.
[3] = listed as N-terminal tetrapeptide
[4] = listed as C-terminal pentapeptide

Substance	Effect on the immune response at higher doses (immune response [1])	Effect on the immune response at higher doses (immune response [1]; [3])	Effect on the immune response at low doses (immune response [1])	Effect on the immune response at low doses (immune response [1]; [3])	Effect on the immune response in vivo (immune response [1])	Effect on the immune response in vivo (immune response [1]; [4])	Effect on the immune response in vitro (immune response [2])	Effect on the immune response in vitro (immune response [2]; [4])
Gly-Pro-Arg-Pro (GPRP) [SP^1-4, No. 5]	slightly stimulated	stimulatory at a higher dose	only moderately suppressed the immune response	suppressive at one dose	–	–	–	–
Phe-Phe-Gly-Leu-Met-NH2 (FFGLM-NH2) [SP^7-11, No. 2]	–	–	–	–	distinct immuno-suppression in vivo	immunosuppressant	suppressed the immune response in vitro	immunosuppressant
